Reference: article PMC9916964 (International Journal of Molecular Sciences, 2023)
Read-outs that look alike come from different tables or passages of the source.

Key:
[1] = target: T1, electric eel acetylcholinesterase (eeAChE) (Electrophorus electricus, UniProt O42275); assay: Cholinesterase inhibition assay (Ellman's method), eeAChE; format: biochemical; conditions: for IC50: Ellman's method, 25 °C, pH 7.4
T1 construct: purchased Sigma-Aldrich, St. Louis, MO, USA
Method: (§1) Cholinesterase activity was measured by Ellman’s method adapted for microtiter plates, as previously described by Ristovski et al.. A complex and its ligands were first screened for the IC50 determination and then the inhibitory constants (Ki) were determined. A stock solution of C1 (1 mg/mL) was prepared in 5% v/v DMSO in deionized water, while a stock solution of chlorido analogue C1′ (1 mg/mL) was prepared in 100% methanol (MeOH). […] These solutions were added to the wells, and gradually diluted in 100 mM of potassium phosphate buffer (pH 7.4) to the final volume of 50 µL. Acetylthiocholine chloride and 5,5′-dithiobis-2-nitrobenzoic acid were then dissolved in the same buffer to the respective final concentrations of 1 and 0.5 mM and added (100 μL) to the wells of the microtiter plates. C1 was screened against a suite of ChEs of human and animal origin (eeAChE, hrAChE, hsBChE) (all three from Sigma-Aldrich, St. Louis, MO, USA), hrBChE (gift from the research group of Professor Stanislav Gobec, Faculty of Pharmacy, University of Ljubljana), and csBChE. All enzymes were dissolved in the 100 mM potassium phosphate buffer (pH 7.4) to 0.0075 U/mL. Fifty μL of each ChE was added to start the reactions, which were followed spectrophotometrically at 405 nm and 25 °C for 5 min using a kinetic microplate reader (Dynex Technologies Inc., Chantilly, VA, USA). The blank reactions without the inhibitors were run with the appropriate dilutions of the solvents, in which the tested compound and positive control were initially diluted (5% aqueous DMSO or 100% MeOH), and the readings were corrected according to the appropriate blanks. […] Each measurement was repeated at least three times. Data were analyzed using OriginPro software (OriginPro 2020, OriginLab Corporation, Northampton, MA, USA).

[2] = target: T2, human recombinant acetylcholinesterase (hrAChE) (Homo sapiens, UniProt P22303); assay: Cholinesterase inhibition assay (Ellman's method), hrAChE; format: biochemical; conditions: for IC50: Ellman's method, 25 °C, pH 7.4
T2 construct: purchased Sigma-Aldrich, St. Louis, MO, USA
T2 sequence (P22303 32-614): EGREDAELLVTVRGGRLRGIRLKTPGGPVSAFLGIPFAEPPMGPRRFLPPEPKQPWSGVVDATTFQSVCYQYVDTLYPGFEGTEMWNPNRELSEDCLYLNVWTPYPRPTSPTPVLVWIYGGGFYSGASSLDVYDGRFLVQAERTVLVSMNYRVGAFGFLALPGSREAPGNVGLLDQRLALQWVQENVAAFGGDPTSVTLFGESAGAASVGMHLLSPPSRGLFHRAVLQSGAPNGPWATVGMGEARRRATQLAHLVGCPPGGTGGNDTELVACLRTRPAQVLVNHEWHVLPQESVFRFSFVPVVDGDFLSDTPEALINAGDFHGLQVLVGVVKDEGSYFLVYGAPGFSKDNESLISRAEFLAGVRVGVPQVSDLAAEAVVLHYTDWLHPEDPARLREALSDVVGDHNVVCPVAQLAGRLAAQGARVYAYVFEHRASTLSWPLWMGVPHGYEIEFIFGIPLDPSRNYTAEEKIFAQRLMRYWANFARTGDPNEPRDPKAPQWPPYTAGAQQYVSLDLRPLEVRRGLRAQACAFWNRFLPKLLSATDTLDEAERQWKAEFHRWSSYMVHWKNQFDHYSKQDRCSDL
Method: as §1

[3] = target: T3, horse serum butyrylcholinesterase (hsBChE) (Equus caballus, UniProt P81908); assay: Cholinesterase inhibition assay (Ellman's method), hsBChE; format: biochemical; conditions: for IC50: Ellman's method, 25 °C, pH 7.4
T3 construct: BChE derived from horse serum; purchased Sigma-Aldrich, St. Louis, MO, USA; host or cells: horse serum
T3 sequence (P81908 whole entry): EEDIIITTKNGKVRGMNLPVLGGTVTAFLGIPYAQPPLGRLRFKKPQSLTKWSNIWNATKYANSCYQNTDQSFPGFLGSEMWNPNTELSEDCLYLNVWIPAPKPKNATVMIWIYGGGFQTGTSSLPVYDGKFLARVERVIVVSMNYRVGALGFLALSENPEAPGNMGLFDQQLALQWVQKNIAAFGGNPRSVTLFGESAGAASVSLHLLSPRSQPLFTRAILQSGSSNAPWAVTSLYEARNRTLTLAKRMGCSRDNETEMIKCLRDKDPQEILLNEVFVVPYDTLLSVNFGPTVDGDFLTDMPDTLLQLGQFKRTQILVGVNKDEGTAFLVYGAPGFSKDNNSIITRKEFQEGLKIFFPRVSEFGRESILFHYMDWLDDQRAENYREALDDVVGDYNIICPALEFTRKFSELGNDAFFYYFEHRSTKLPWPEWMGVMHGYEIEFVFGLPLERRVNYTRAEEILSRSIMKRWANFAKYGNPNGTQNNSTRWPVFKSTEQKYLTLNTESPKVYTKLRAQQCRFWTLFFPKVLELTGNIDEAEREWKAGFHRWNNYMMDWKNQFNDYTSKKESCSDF
Method: as §1

[4] = target: T4, human recombinant butyrylcholinesterase (hrBChE) (Homo sapiens, UniProt P06276); assay: Cholinesterase inhibition assay (Ellman's method), hrBChE; format: biochemical; conditions: for IC50: Ellman's method, 25 °C, pH 7.4
T4 construct: gift from the research group of Professor Stanislav Gobec, Faculty of Pharmacy, University of Ljubljana
T4 sequence (P06276 29-602): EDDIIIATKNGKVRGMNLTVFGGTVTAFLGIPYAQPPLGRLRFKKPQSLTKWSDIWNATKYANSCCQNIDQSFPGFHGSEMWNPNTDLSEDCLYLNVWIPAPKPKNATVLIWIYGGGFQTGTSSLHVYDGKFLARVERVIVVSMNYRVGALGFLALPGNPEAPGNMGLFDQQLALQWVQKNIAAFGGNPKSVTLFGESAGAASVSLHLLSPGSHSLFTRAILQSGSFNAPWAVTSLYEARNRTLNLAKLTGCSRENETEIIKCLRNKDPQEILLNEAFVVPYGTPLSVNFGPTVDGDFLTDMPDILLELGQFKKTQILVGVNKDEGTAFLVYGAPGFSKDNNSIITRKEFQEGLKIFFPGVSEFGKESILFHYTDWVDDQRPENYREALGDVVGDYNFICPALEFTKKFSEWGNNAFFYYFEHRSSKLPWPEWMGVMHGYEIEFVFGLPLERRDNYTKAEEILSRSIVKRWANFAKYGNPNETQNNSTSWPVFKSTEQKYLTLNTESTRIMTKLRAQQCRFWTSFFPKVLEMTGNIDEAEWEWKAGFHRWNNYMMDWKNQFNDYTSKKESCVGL
Method: as §1

[5] = target: canine serum butyrylcholinesterase (csBChE) (Canis lupus familiaris, UniProt A0A8I3PBA0); assay: Cholinesterase inhibition assay (Ellman's method), csBChE; format: biochemical; conditions: for IC50: Ellman's method, 25 °C, pH 7.4
Sequence of canine serum butyrylcholinesterase (csBChE) (A0A8I3PBA0 29-602): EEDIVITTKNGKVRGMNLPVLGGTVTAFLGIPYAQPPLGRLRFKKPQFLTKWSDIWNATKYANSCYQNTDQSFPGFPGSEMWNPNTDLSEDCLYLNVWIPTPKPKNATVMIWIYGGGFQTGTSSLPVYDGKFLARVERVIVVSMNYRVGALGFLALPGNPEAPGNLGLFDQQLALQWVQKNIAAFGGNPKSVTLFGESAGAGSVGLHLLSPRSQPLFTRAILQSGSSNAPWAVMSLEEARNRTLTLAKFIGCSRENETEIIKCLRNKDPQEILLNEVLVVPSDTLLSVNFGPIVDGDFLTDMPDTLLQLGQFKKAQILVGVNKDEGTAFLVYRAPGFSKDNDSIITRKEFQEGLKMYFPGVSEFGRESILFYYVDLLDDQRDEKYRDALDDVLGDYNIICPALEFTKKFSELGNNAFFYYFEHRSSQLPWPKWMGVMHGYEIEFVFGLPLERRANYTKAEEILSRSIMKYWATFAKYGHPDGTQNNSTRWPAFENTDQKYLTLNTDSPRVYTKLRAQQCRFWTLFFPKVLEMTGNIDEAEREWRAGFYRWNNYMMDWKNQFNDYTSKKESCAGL
Method: as §1

[6] = target: T1, electric eel acetylcholinesterase (eeAChE); conditions: previously reported; ref Ristovski et al. [9]; cited from earlier work
[7] = target: T2, human recombinant acetylcholinesterase (hrAChE); conditions: previously reported; ref Ristovski et al. [9]; cited from earlier work
[8] = target: T3, horse serum butyrylcholinesterase (hsBChE); conditions: previously reported; ref Ristovski et al. [9]; cited from earlier work
[9] = tested on: isolated mouse nerve-hemidiaphragm preparation; assay: Muscle contraction recordings on isolated hemidiaphragm
Method: (§2) Mice were sacrificed by cervical dislocation and immediate exsanguination. After dissection of the diaphragm muscle with both phrenic nerves, the diaphragm muscle was cut into two hemidiaphragms. Each hemidiaphragm was maintained in oxygenated standard Krebs-Ringer solution (154 mM NaCl, 5 mM KCl, 2 mM CaCl2, 1 mM MgCl2, 5 mM HEPES, and 11 mM D-glucose; pH 7.4). Just prior to experiments, C1 was dissolved in a solution of 2.5% DMSO in deionized water at a stock concentration of 2 mg/mL. The final concentration of DMSO in the organ bath was always 0.104% v/v. All experiments were performed at room temperature (22–24 °C).
The hemidiaphragm with phrenic nerve was pinned on its lateral side into a silicon-coated organ bath containing oxygenated Krebs-Ringer (K-R) solution. Then, the tendon part was linked to the lever of an isometric mechano-electrical transducer (Grass Instruments, West Warwick, RI, USA) via a stainless-steel hook and silk thread. The equal stimulus protocol, equipment, and software were used as previously described by Ristovski et al.. The concentrations of C1 studied were 30, 60, 90, and 120 μM and their effect on muscle contraction was continuously measured during 60 min after application. The muscle twitch and tetanic contraction blockade produced by C1 was shown as the percentage of the initial maximal response.

[10] = tested on: AChE in mouse diaphragm muscle; conditions: 3 µM; cited from earlier work
[11] = target: T3, horse serum butyrylcholinesterase (hsBChE); assay: Cholinesterase inhibition assay (Ellman's method), hsBChE; format: biochemical; conditions: substrate acetylthiocholine 0.125, 0.25, 0.5 mM
[12] = tested on: mouse hemidiaphragm muscle fibers; conditions: 120 µM; for resting membrane potential (rVm), median: end-plate regions of surface fibers
Method: as §2
Electrophysiological recordings on hemidiaphragm muscle fibers were performed using conventional microelectrode techniques. For measurements of rVm, EPP, and MEPP, hemidiaphragm preparations were immersed in oxygenated K-R solution containing 1.6 μM of μ-conotoxin GIIIB (Bachem, Bubendorf, Switzerland) and incubated for 30 min. The same stimulus protocol, equipment, and software were used to perform membrane potential recordings, as previously described by Ristovski et al.. Only the highest concentration of C1 (120 μM) was studied. The recordings were performed before applying C1, 30 and 60 min after the compound application, and 15 min after the compound wash-out. MEPP and EPP amplitudes were normalized to a rVm of −70 mV using the formula: Vc = Vo (−70)/rVm, where Vc is the normalized amplitude of MEPPs and EPPs, and Vo is their recorded amplitude.

T1 sequence (O42275 24-633): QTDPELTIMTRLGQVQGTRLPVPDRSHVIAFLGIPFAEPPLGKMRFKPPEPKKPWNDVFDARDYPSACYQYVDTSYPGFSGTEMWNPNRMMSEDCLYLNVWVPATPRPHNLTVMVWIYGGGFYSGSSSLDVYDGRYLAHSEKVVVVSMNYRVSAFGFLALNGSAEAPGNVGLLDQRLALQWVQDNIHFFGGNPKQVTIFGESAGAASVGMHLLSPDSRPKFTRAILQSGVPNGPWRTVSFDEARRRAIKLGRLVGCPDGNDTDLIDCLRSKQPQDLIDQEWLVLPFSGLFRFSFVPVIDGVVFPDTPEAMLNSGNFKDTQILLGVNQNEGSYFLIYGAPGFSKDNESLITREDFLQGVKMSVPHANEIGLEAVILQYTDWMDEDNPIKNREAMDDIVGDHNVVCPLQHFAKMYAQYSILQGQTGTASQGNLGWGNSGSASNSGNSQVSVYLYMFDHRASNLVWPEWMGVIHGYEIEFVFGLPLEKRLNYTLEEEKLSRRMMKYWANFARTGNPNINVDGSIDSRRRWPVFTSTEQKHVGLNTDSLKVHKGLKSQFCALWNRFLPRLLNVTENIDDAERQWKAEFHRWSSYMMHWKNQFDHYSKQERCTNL

With `COc1cccn(O)c1=S` [Compound L1, 1-hydroxy-3-methoxypyridine-2(1H)-thion] as the compound, how does the “inhibition of eeAChE (in words)” value [1] read?
The value was “did not inhibit”.

What about the IC50 [1] of the same compound?
The IC50 was > 180 µM.

And the “inhibition of hrAChE (in words)” value [2]?
The value was “did not inhibit”.

What about the IC50 [2] of the same compound?
The IC50 was > 180 µM.

And the “inhibition of hsBChE (in words)” value [3]?
The value was “did not inhibit”.

What about the IC50 [3] of the same compound?
Its IC50 is > 180 µM.

And the “inhibition of hrBChE (in words)” value [4]?
Its value is “did not inhibit”.

What about the IC50 [4] of the same compound?
Its IC50 is > 180 µM.

What about the “inhibition of csBChE (in words)” value [5] of the same compound?
Its value is “did not inhibit”.

What about the IC50 [5] of the same compound?
Its IC50 is > 180 µM.

Which results are given for `Cc1ccc(C(C)C)cc1.Cc1ccc(C(C)C)cc1.[Cl][Ru][Cl].[Cl][Ru][Cl]` [Compound P1, dichloro(p-cymene)ruthenium(II) dimer]?
IC50 [6]: > 180 µM; IC50 [7]: > 180 µM; IC50 [8]: 32.7 µM; Ki [8]: 23.3 µM

With `CN(C)C(=O)Oc1cccc([N+](C)(C)C)c1` [Neostigmine, neostigmine methyl sulphate, reference compound] as the compound, how does the IC50 [1] read?
The IC50 was 3.9 µM.

And the IC50 [3]?
The IC50 was 62.8 µM.

What about the IC50 [4] of the same compound?
The IC50 was 174 µM.

What about the IC50 [5] of the same compound?
Its IC50 is 28.4 µM.

What about the “effect on nerve-evoked single-muscle and tetanic contraction” value ([9]; 3 µM, positive control) of the same compound?
The value was “a slight increase in the amplitude of the nerve-evoked single-muscle contraction and a tetanic fade”.

And the “inhibition of AChE in mouse diaphragm muscle” value [10]?
The value was 96%.

Which “inhibition of eeAChE (in words)” value [1] does the source give for “[(η^6-p-Cymene)Ru(II)(1-hydroxy-3-methoxypyridine-2(1H)-thionato)Cl] [C1′]” here?
The value was “low micromolar range”.

What about the “type of inhibition of eeAChE” value [1] of the same compound?
The value was “reversible competitive type”.

And the IC50 [1]?
Its IC50 is 7.5 µM.

What about the Ki ([1]; substrate 0.125, 0.25, 0.5 mM) of the same compound?
The Ki was 4.8 µM.

What about the “inhibition of hrAChE (in words)” value [2] of the same compound?
Its value is “low micromolar range”.

And the “type of inhibition of hrAChE” value [2]?
Its value is “reversible competitive type”.

What about the IC50 [2] of the same compound?
Its IC50 is 5.04 µM.

What about the Ki ([2]; substrate 0.125, 0.25, 0.5 mM) of the same compound?
The Ki was 5.35 µM.

What about the “inhibition of hsBChE (in words)” value [3] of the same compound?
Its value is “low micromolar range”.

What about the “type of inhibition of hsBChE” value [3] of the same compound?
Its value is “reversible competitive type”.

And the IC50 [3]?
Its IC50 is 2.34 µM.

And the “inhibition of hrBChE (in words)” value [4]?
The value was “low micromolar range”.

What about the “type of inhibition of hrBChE” value [4] of the same compound?
The value was “reversible competitive type”.

What about the IC50 [4] of the same compound?
Its IC50 is 1.29 µM.

What about the Ki ([4]; substrate 0.125, 0.25, 0.5 mM) of the same compound?
Its Ki is 1.25 µM.

What about the “inhibition of csBChE (in words)” value [5] of the same compound?
Its value is “low micromolar range”.

What about the “type of inhibition of csBChE” value [5] of the same compound?
Its value is “reversible competitive type”.

What about the IC50 [5] of the same compound?
Its IC50 is 2.27 µM.

And the Ki ([5]; substrate 0.125, 0.25, 0.5 mM)?
Its Ki is 3 µM.

What about the Ki [11] of the same compound?
The Ki was 3.4 µM.

With “[(η^6-p-Cymene)Ru(II)(1-hydroxy-3-methoxypyridine-2(1H)-thionato)pta]PF6 [Compound C1]” as the compound, how does the “inhibition of eeAChE (in words)” value [1] read?
Its value is “did not inhibit”.

What about the IC50 [1] of the same compound?
Its IC50 is > 180 µM.

What about the “inhibition of hrAChE (in words)” value [2] of the same compound?
Its value is “did not inhibit”.

And the IC50 [2]?
The IC50 was > 180 µM.

What about the “inhibition of hsBChE (in words)” value [3] of the same compound?
Its value is “selectively inhibited”.

And the “type of inhibition of hsBChE” value [3]?
The value was “reversible competitive type”.

What about the IC50 [3] of the same compound?
Its IC50 is 2.88 µM.

And the IC50 [4]?
The IC50 was 144 µM.

What about the “inhibition of hrBChE lower compared to hsBChE” value ([4]; ratio of IC50 hrBChE versus hsBChE) of the same compound?
Its value is “about 50 times”.

And the IC50 [5]?
The IC50 was > 180 µM.

And the “inhibition of csBChE (in words)” value ([5]; concentrations (0–180 µM) tested)?
Its value is “did not inhibit”.

And the “nerve-evoked single-twitch and tetanic contractions” value ([9]; 120 µM, 60 min exposure)?
Its value is “not statistically significant increases”.

What about the “effect on maximal amplitude of nerve-evoked and directly elicited single-twitch and tetanic contractions” value ([9]; 30, 60, 90 and 120 µM, 60 min exposure) of the same compound?
Its value is “no significant effect”.

What about the resting muscle tension ([9]; 30-120 µM, an increase would indicate a myotoxic effect) of the same compound?
The resting muscle tension was “did not detect an increase”.

And the “resting membrane potential (rVm), median” value ([12]; 30 min after exposure)?
Its value is −66.13 mV.

What about the “resting membrane potential (rVm), median” value ([12]; 60 min after exposure) of the same compound?
Its value is −66.63 mV.

And the “effect on resting membrane potential (rVm)” value ([12]; after 30 and 60 min of exposure)?
Its value is “no effect”.

And the MEPPs frequency ([12]; within 60 min)?
Its MEPPs frequency is “without reducing”.

And the “amplitudes of EPPs” value ([12]; within 60 min)?
Its value is “did not affect”.

What about the “amplitudes of MEPPs” value ([12]; within 60 min) of the same compound?
The value was “significantly decreased”.

And the “half-decay time of EPPs” value ([12]; within 60 min of exposure)?
The value was “shortened”.

And the “half-decay time of MEPPs” value ([12]; within 60 min of exposure)?
Its value is “shortened”.

And the Ki [11]?
The Ki was 1.33 µM.
